What all share (type): cell-based
In one assay the test system is HCC1954 cells. As to the kind of experiment: Inhibitory response against HCC1954 cells (method analogous to BT-474). The settings on record: Homo sapiens, inhibition of cell growth. The method, then:
(§1) BT-474 human mammary gland ductal carcinoma cells were seeded in a clear polystyrene 96-well microculture plate (Corning® Costar® 96-well flat bottom plate, Cat. #3997) in a total volume of 90 μL/well. After 24 hours of incubation in a humidified incubator at 37° C. with 5% CO2 and 95% air, 10 μL of 10×, serially diluted test agents in growth medium were added to each well (10 pt dose response curve, highest concentration 10 M of test agent). After 72 hours of culture in a humidified incubator at 37° C., in an atmosphere of 5% CO2 and 95% air, the plated cells and Cell Titer-Glo® (Promega G7571) reagents were brought to room temperature to equilibrate for 30 minutes. 100 μL of Cell Titer-Glo® reagent was added to each well. The plate was shaken for two minutes and then left to equilibrate for ten minutes. The media/Cell Titer-Glo® reagent was transferred to a white polystyrene 96-well microculture plate (Corning® Costar® 96-well flat bottom plate, Cat. #3917) before reading luminescence on a Tecan GENios microplate reader.
(§2) Percent inhibition of cell growth was calculated relative to untreated control wells. The IC50 value for the test agents was determined using Prism 6.05 by curve-fitting of the data using the following four parameter-logistic equation:
(§3) [formula] where Top is the maximal % of control absorbance, Bottom is the minimal % of control absorbance at the highest agent concentration, Y is the % of control absorbance, X is the agent concentration, IC50 is the concentration of agent that inhibits cell growth by 50% compared to the control cells, and n is the slope of the curve.
Inhibitory response of test compounds against HCC1954 cells was determined using a method analogous to that used for BT-474 cells.

Assay [1] deals with MES-SA/Dx (multidrug-resistant human uterine sarcoma) cells. As to the kind of experiment: Inhibitory response against MES-SA/Dx cells (Cell Titer-Glo). Particulars: 72 hours of culture, inhibition of cell growth. The method, then: MES-SA/Dx (multidrug-resistant human uterine sarcoma) cells are seeded in a clear polystyrene 96-well microculture plate in a total volume of 90 μL/well. After 24 hours of incubation in a humidified incubator at 37° C. with 5% CO2 and 95% air, 10 μL of 10×, serially diluted test agents in growth medium are added to each well. After 72 hours of culture in a humidified incubator at 37° C., in an atmosphere of 5% CO2 and 95% air, the plated cells and Cell Titer-Glo® (Promega G7571) reagents are brought to room temperature to equilibrate for 30 minutes. 100 μL of Cell Titer-Glo® reagent are added to each well. The plate is shaken for two minutes and then left to equilibrate for ten minutes. The media/Cell Titer-Glo® reagent is transferred to a polystyrene 96-well microculture plate before reading luminescence on a Tecan GENios microplate reader.
Percent inhibition of cell growth is calculated relative to untreated control wells. The IC50 value for the test agents is determined using Prism 6.05 by curve-fitting of the data using the following four parameter-logistic equation: […]

For assay [2], the system named is BT-474 human mammary gland ductal carcinoma cells. The assay can be described thus: Inhibitory response against BT-474 cells (Cell Titer-Glo). The settings on record: 72 hours of culture, inhibition of cell growth. The method, then:
as §1, §2, §3
(ATP-based viability assays read luminescence as a measure of living cells.)

Assay [3] has as its system MES-SA (human uterine sarcoma) cells. The assay can be described thus: Inhibitory response against MES-SA cells (Cell Titer-Glo). The settings on record: 72 hours of culture, inhibition of cell growth. The method, then: as §1, with “MES-SA (human uterine sarcoma)” for “BT-474 human mammary gland ductal carcinoma”, “μM” for “M”
Percent inhibition of cell growth is calculated relative to untreated control wells. The IC50 value for the test agents is determined using Prism 6.05 by curve-fitting of the data using the following four parameter-logistic equation:
as §3

The structures appear in SMILES notation. Square brackets hold non-standard residues; d marks the D form. Peptide text beside a SMILES is read from it. * marks the point of attachment. Dolaproine = CO[C@@H]([C@@H]1CCCN1)[C@@H](C)C(=O)O; Dil = CC[C@H](C)[C@H](NC)[C@@H](CC(=O)O)OC; dVal(3-OH) = CC(C)(O)[C@@H](N)C(=O)O; Val(3-OH) = CC(C)(O)[C@H](N)C(=O)O; Doe = c1ccc(C[C@H](N*)c2nccs2)cc1; X1 = C[C@@H](N*)[C@@H](O)c1ccccc1; NMeV = CN[C@H](C(=O)O)C(C)C; NMeAib = CNC(C)(C)C(=O)O; Aib = CC(C)(N)C(=O)O

Usually IC50 stands for the concentration that inhibits the measured activity by half. High values mean weaker potency in that assay, low ones greater potency in that assay. On to `CC[C@H](C)[C@@H]([C@@H](CC(=O)N1CCC[C@H]1[C@H](OC)[C@@H](C)C(=O)N[C@@H](Cc1ccccc1)c1nccs1)OC)N(C)C(=O)[C@@H](NC(=O)[C@H](C(C)C)N(C)C)C(C)(C)O` [Compound 101], for which the IC50 came out at 0.004 nM in the assay with HCC1954 cells, 6.37 nM in assay [1], 0.0022 nM in assay [2] and 0.035 nM in assay [3].

Consider `CC[C@H](C)[C@@H]([C@@H](CC(=O)N1CCC[C@H]1[C@H](OC)[C@@H](C)C(=O)N[C@@H](Cc1ccccc1)c1nccs1)OC)N(C)C(=O)[C@@H](NC(=O)C(C)(C)NC)C(C)(C)O` [Compound 107] (H-[NMeAib][Val(3-OH)][Dil][Dolaproine]-Doe), for which the values for the 50% inhibitory concentration (IC50) (in the assay with HCC1954 cells; in assay [2]) were 0.03 nM and 0.064 nM, respectively.

Consider `CC[C@H](C)[C@@H]([C@@H](CC(=O)N1CCC[C@H]1[C@H](OC)[C@@H](C)C(=O)N[C@H](C)[C@@H](O)c1ccccc1)OC)N(C)C(=O)[C@@H](NC(=O)[C@H](C(C)C)N(C)C)C(C)(C)O` [Compound 108], for which the figures for the half-inhibitory concentration (IC50) (in the assay on HCC1954 cells; in assay [2]) were 0.46 nM and 0.14 nM, respectively.

For the molecule `CC[C@H](C)[C@@H]([C@@H](CC(=O)N1CCC[C@H]1[C@H](OC)[C@@H](C)C(=O)N[C@H](C)[C@@H](O)c1ccccc1)OC)N(C)C(=O)[C@@H](NC(=O)[C@@H](NC)C(C)C)C(C)(C)O` [Compound 109] (H-[NMeV][Val(3-OH)][Dil][Dolaproine]-X1), the IC50 was 10.9 nM with HCC1954 cells, 26.1 nM in assay [2] and 14.9 nM in assay [3].

With `CC[C@H](C)[C@@H]([C@@H](CC(=O)N1CCC[C@H]1[C@H](OC)[C@@H](C)C(=O)N[C@H](C)[C@@H](O)c1ccccc1)OC)N(C)C(=O)[C@@H](NC(=O)C(C)(C)NC)C(C)(C)O` [Compound 110] (H-[NMeAib][Val(3-OH)][Dil][Dolaproine]-X1), the results for the concentration for half-maximal inhibition (IC50) (in the assay with HCC1954 cells; in assay [2]; in assay [3]) were 2.92 nM, 9.09 nM and 4.18 nM, respectively.

Turning to `CC[C@H](C)[C@@H]([C@@H](CC(=O)N1CCC[C@H]1[C@H](OC)[C@@H](C)C(=O)N[C@@H](Cc1ccccc1)c1nccs1)OC)N(C)C(=O)[C@H](CSC)NC(=O)C(C)(C)NC` [Compound 111] (H-[NMeAib]C(Me)[Dil][Dolaproine]-Doe), the 50% inhibitory concentration (IC50) in the assay with HCC1954 cells was 0.0656 nM; in assay [2], 0.863 nM.

Regarding `CC[C@H](C)[C@@H]([C@@H](CC(=O)N1CCC[C@H]1[C@H](OC)[C@@H](C)C(=O)N[C@@H](Cc1ccccc1)c1nccs1)OC)N(C)C(=O)[C@@H](NC(=O)C(C)(C)N)C(C)(C)O` [Compound 113] (H-[Aib][Val(3-OH)][Dil][Dolaproine]-Doe), the IC50 with HCC1954 cells came to 1.24 nM; in assay [2], 1.22 nM.

Take `CC[C@H](C)[C@@H]([C@@H](CC(=O)N1CCC[C@H]1[C@H](OC)[C@@H](C)C(=O)N[C@@H](Cc1ccccc1)c1nccs1)OC)N(C)C(=O)[C@H](NC(=O)C(C)(C)NC)C(C)(C)O` [Compound 114] (H-[NMeAib][dVal(3-OH)][Dil][Dolaproine]-Doe): the IC50 in the assay with HCC1954 cells is 0.017 nM; in assay [2] it was 0.0616 nM.
